# Activity calls are given as the source filed them.
# Tests used:
# [1] = system: Streptococcus sp. 'group A'; assay: Streptococcus pyogenes SK(-)GAS viability under kanamycin – luminescence, BacTiterGlo, confirmation, counter-screen for streptokinase expression inhibitor project, dose response (AID 1900); format: functional, organism-based
# Streptokinase A = target: T1, Streptokinase A (Streptococcus pyogenes serotype M1, UniProt P10520); assay: viability-normalized secreted streptokinase activity reduction – plasminogen activation absorbance, OD405, dose response (AID 1914); format: functional, Streptococcus pyogenes M1 GAS;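 also: secreted streptokinase activity via plasminogen activation per viability signal from cell pellet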
# T1 sequence (P10520 whole entry): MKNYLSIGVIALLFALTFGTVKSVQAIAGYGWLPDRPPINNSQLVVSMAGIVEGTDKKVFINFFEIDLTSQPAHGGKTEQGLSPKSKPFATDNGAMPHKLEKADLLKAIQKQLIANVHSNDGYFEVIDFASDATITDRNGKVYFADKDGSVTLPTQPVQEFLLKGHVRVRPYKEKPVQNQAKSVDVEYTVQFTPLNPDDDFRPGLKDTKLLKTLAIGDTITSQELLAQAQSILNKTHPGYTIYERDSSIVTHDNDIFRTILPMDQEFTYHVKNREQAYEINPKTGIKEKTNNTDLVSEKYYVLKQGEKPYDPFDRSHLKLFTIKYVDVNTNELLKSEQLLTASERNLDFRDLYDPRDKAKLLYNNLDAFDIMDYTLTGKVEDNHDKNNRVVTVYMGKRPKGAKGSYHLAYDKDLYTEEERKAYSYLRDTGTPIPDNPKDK
# Streptococcus = assay: GAS UMAA2166 growth inhibition – luminescence, BacTiterGlo, counter-screen for streptokinase expression inhibitor project, dose response (AID 1915); format: functional, organism-based;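 also: potency for reduction of bacterial viability or growth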
# [2] = target: T2, Sentrin-specific protease 6 (Homo sapiens, UniProt Q9GZR1); format: functional;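 also: Luminescence-based dose-response confirmatory assay of SENP6 inhibition, following up an ultra-high-throughput screen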
# T2 sequence (Q9GZR1 whole entry): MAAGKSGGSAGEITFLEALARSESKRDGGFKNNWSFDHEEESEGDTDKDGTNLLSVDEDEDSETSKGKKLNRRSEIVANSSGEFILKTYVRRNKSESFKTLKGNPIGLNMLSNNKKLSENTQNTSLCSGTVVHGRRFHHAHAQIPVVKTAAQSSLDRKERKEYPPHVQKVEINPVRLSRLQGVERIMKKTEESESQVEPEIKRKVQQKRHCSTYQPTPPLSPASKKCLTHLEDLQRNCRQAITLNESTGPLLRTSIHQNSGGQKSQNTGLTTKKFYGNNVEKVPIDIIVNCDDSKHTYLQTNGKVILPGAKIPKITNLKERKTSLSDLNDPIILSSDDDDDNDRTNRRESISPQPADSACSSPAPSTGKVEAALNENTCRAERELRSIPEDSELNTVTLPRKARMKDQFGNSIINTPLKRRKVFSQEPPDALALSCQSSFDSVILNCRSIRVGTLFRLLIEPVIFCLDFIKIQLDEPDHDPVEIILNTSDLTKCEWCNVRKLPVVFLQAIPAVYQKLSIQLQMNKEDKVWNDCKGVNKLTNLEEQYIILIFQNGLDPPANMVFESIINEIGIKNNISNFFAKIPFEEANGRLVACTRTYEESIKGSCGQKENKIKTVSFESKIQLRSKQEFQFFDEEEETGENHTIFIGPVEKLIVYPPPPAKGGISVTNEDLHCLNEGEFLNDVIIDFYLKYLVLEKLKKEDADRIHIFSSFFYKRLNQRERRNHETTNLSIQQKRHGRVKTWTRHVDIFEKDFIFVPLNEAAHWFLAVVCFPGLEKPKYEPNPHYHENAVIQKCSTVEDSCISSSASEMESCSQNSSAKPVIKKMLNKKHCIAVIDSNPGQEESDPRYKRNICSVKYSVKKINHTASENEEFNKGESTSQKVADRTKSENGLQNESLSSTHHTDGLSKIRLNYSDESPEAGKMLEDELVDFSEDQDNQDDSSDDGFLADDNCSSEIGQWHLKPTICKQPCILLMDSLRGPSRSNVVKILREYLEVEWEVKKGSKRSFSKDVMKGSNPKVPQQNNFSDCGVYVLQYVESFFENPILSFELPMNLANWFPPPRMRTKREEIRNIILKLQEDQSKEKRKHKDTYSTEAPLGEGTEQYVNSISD
# [3] = target: T3, Apoptotic protease-activating factor 1 (Homo sapiens, UniProt O14727); format: functional
# T3 sequence (O14727 whole entry): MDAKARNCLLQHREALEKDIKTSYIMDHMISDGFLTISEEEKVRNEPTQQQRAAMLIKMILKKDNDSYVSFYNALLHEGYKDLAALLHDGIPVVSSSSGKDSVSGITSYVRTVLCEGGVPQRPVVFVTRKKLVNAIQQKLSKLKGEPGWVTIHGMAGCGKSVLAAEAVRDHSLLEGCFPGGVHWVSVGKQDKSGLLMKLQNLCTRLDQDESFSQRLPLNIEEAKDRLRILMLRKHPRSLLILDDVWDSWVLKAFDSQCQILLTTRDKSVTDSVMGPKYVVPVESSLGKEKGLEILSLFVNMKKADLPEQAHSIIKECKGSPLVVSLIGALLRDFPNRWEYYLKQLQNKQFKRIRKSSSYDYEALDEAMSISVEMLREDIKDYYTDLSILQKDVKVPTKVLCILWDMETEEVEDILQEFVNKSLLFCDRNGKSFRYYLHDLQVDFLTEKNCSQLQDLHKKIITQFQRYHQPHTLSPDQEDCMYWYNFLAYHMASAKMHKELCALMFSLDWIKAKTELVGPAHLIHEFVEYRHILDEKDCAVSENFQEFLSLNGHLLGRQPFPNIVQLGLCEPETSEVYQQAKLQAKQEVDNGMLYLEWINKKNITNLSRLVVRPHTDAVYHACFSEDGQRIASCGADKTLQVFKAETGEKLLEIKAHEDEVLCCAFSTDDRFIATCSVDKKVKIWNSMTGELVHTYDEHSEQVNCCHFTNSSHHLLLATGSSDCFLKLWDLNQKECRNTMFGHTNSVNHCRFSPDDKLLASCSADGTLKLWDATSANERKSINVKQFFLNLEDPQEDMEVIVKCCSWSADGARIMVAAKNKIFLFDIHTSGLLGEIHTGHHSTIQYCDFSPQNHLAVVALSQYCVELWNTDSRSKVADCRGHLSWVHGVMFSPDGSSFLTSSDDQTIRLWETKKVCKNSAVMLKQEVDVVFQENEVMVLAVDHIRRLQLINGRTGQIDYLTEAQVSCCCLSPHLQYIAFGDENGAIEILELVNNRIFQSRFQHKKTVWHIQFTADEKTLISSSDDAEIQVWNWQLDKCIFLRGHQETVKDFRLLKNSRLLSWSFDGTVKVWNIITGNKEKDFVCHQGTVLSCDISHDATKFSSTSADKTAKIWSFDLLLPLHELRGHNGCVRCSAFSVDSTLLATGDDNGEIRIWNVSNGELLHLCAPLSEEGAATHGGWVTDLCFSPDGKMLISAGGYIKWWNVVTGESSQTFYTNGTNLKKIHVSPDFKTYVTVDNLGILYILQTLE
# [4] = target: Tyrosyl-DNA phosphodiesterase 2 (Homo sapiens, UniProt O95551); assay: potency against TDP2 phosphodiesterase activity – biochemical, epi absorbance, IC50, dose response (AID 743297)
# Tyrosyl-DNA phosphodiesterase 2, sequence (O95551 whole entry): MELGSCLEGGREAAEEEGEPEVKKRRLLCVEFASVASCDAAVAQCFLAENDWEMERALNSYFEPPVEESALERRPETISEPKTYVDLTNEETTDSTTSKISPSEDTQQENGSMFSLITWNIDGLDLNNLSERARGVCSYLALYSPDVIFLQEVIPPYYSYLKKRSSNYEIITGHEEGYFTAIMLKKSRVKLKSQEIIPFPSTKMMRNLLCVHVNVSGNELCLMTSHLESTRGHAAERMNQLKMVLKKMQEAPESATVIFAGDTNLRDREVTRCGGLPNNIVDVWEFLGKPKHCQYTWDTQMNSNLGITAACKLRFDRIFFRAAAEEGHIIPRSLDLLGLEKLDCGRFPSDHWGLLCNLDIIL
smiles,measurement,setting,value
Clc1ccc(C2=CSC3=Nc4cccc5cccc(c45)N23)cc1,EC50,[1],4.17 µM (active)
same,EC50,Streptokinase A,> 150 µM (not active)
same,EC50,Streptococcus,17.1 µM (active)
same,IC50,[2],1.89 µM (active)
same,IC50,[3],17.9 µM (active)
same,IC50,[4],> 128 µM (inactive)

# Reference: ChEMBL document CHEMBL1201862, “PubChem BioAssay data set” (2004)
